Laboratory results reported in US20100273806A1, “TETRAHYDROCYCLOPENTA[B]INDOL-3-YL CARBOXYLIC ACID DERIVATIVES USEFUL IN THE TREATMENT OF AUTOIMMUNE AND INFLAMMATORY DISORDERS” (ARENA PHARMACEUTICALS, INC., priority 2007, published 2010).

Tests used:
Female C57BL/6 mice = experiment: MOG-induced EAE in mice; assay type: in vivo, mouse; conditions: 30 mg/kg orally once a day from day 3 until day 21, compared with vehicle; FIG. 5
Protocol: (§1) Animals: Female C57BL/6 mice (8 to 10 weeks of age at start of study) (Jackson Laboratory, Bar Harbor, Me.) were housed four per cage and maintained in a humidity- (40-60%) and temperature- (68-72° F.) controlled facility on a 12 h:12 h light/dark cycle (lights on at 6:30 am) with free access to food (Harlan Teklad, Orange, Calif., Rodent Diet 8604) and water. Mice were allowed one week of habituation to the animal facility before testing.
Induction of EAE: Mice were immunized subcutaneously, 50 μL per hind flank, with a total of 100 μg MOG35-55peptide emulsified 1:1 with Complete Freund's adjuvant containing 4 mg/ml heat-killed Mycobacterium tuberculosis. Mice also received 200 ng pertussis toxin intraperitoneally on the day of immunization and 48 h later.
Clinical scoring: Severity of disease symptoms was scored as follows (in increasing order of severity): 0=normal; 1=limp tail OR hind limb weakness; 2=limp tail AND limb weakness/weakness of 2 or more limbs; 3=severe limb weakness or single limb paralysis; 4=paralysis of 2 or more limbs; 5=death.
Drug treatment: Mice were dosed orally, with vehicle or test compound, once a day from day 3 until day 21. Dosing volume is 5 ml/kg. Test compound was dosed at 30 mg/kg. […] Mice were monitored daily from day 7 onward for disease symptoms. After the last dose on day 21, disease progression was monitored daily for 2 more weeks.

female NOD/Ltj mice = experiment: Cyclophosphamide induced type I diabetes in NOD mice; assay type: in vivo, mouse; conditions: 30 mg/kg orally once a day from day 0 until day 25, compared with vehicle; FIG. 6
Protocol: Animals: Baseline blood glucose measurements were taken from 9-10 week old female NOD/Ltj mice (Jackson Laboratory, Bar Harbor, Me.) to ensure that they were normoglycemic (blood glucose is 80-120 mg/dL) prior to initiation of the experiment. Blood glucose was measured from tail bleeds using a one touch ultra kit and test strips (LifeScan, Milpitas, Calif.).
Cyclophosphamide induction of Type I diabetes: On day 0 and day 14, normoglycemic NOD mice were injected intraperitoneally with 4 mg cyclophosphamide monohydrate (200 mg/kg) dissolved in 0.9% saline. If mice were diabetic (blood glucose is >250 mg/dL) they were not given a booster dose of cyclophosphamide on day 14.
Drug Treatment: Mice were dosed orally, with vehicle or test compound, once a day from day 0 until day 25. Compounds were suspended in 0.5% methyl cellulose vehicle using a sonicator to ensure uniform suspension. Mice were weighed twice weekly and were dosed according to weight. Dosing volume was 5 mL/kg. Test compound was dosed at 30 mg/kg. Blood glucose was measured twice weekly. After dosing was completed at day 25, the mice continued to be monitored and blood glucose measurements were taken once a week for 3 weeks.

Female Lewis rats = experiment: Collagen-induced arthritis in rats (ankle diameter); assay type: in vivo, rat; conditions: 3, 10 and 30 mg/kg p.o., q.d., day 0 through day 16, compared with vehicle; FIG. 4
Protocol: Female Lewis rats were used in this study. Acclimated animals were anesthetized with isoflurane and given the first collagen injection (day 0). On day 6, they were anesthetized again for the second collagen injection. Collagen was prepared by making a 4 mg/mL solution in 0.01 N acetic acid. Equal volumes of collagen and incomplete Freund's adjuvant were emulsified by hand mixing until a bead of this material held its form when placed in water. Each animal received 300 μL of the mixture each time, spread over 3 subcutaneous sites on the back.
Treatment (p.o., q.d., 5 mL/kg dosing volume) began on day 0 and continued through day 16 with vehicle or compounds given at 24 h intervals. Rats were weighed on days 0, 3, 6 and 9 through 17 and caliper measurements of the ankles taken on days 9 through 17. The 2nd enantiomer of Compound 7 (isolated after resolution of compound 7 by HPLC, with a retention time of 24 min per the conditions reported in Example 1.22) was dosed at 3, 10 and 30 mg/kg.

[1] = tested on: C57BL/6 mice (recipients of Balbc/J skin grafts); experiment: Mouse skin allograft survival; assay type: in vivo; conditions: 3, 10 and 30 mg/kg orally once a day, compared with vehicle; FIG. 3
Protocol: as §1, with “BALBc/J” for “C57BL/6”, “(6” for “(8”, “7” for “10”, “water. Female C57BL/6 mice (8 to 10 weeks of age at start of study) (Jackson Laboratory, Bar Harbor, Me.) were similarly housed and maintained.” for “water.”, “testing. […]” for “testing.”
Clinical scoring: Skin allografts were inspected and digital images recorded daily until rejection, which was defined as the first day on which more than 80% of the graft is necrotic. […] In an optional related study, on posttransplantation day 5 isolated lymphocytes from peripheral lymph nodes and spleen were counted and characterized for activation markers (e.g., T-cell activation markers) by flow cytometry. Also on day 5, grafts were removed from transplanted recipients, cut into small fragments, digested with collagenase and sedimented over Ficoll-Paque (Pharmacia Biotech, Uppsala, Sweden) to isolate graft-infiltrating lymphocytes, which were counted and characterized for activation markers (e.g., T-cell activation markers) by flow cytometry. […]

S1P3 receptor = S1P3 receptor (Homo sapiens, UniProt Q99500); conditions: due to its agonism of the S1P3 receptor; cited from earlier work
[2] = tested on: patients with multiple sclerosis; conditions: Phase II, relapsing-remitting multiple sclerosis; cited from earlier work
mice = conditions: oral administration to mice; cited from earlier work
[3] = tested on: experimental autoimmune uveoretinitis; conditions: short-term high dose; cited from earlier work
C57BL/6 mice = conditions: prophylactic oral administration, 1 mg/kg, three times a week; cited from earlier work

Sequence of S1P3 receptor (Q99500 whole entry): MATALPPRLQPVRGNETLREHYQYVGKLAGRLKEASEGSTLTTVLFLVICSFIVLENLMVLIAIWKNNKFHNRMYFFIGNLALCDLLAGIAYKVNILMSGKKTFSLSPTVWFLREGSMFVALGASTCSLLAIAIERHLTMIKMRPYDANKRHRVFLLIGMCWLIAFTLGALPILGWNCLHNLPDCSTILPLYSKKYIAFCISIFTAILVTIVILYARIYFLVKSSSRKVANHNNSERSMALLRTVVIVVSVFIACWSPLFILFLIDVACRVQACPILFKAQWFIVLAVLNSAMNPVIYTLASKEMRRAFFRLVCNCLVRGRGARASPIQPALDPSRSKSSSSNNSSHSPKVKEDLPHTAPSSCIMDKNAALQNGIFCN

Compound	severity of disease symptoms in EAE (Female C57BL/6 mice)	incidence of diabetes / promotion of normoglycemia (female NOD/Ltj mice)	mean ankle diameter (Female Lewis rats)	delay of time of rejection of the skin allograft [1]	adverse event in clinical trials (S1P3 receptor)	number of lesions detected by MRI and clinical disease activity [2]	VEGF-induced vascular permeability (mice)	ocular infiltrates [3]	development of EAMG (C57BL/6 mice)
N#Cc1cc(OC(F)(F)F)cc(-c2nc(-c3ccc4[nH]c5c(c4c3)CCC5CC(=O)O)no2)c1 (stereo not drawn) [2nd enantiomer of Compound 7, 2-(7-(5-(3-cyano-5-(trifluoromethoxy)phenyl)-1,2,4-oxadiazol-3-yl)-1,2,3,4-tetrahydrocyclopenta[b]indol-3-yl)acetic acid]	exhibited activity in the mouse EAE assay	exhibited activity in the NOD mouse type I diabetes assay	exhibited activity for reducing mean ankle diameter in the rat	exhibited activity in the mouse skin allograft assay					
CCCCCCCCc1ccc(CCC(N)(CO)CO)cc1 [FTY720]					transient asymptomatic bradycardia	reduce the number of lesions detected by magnetic resonance imaging (MRI) and clinical disease activity	potently blocked VEGF-induced vascular permeability	rapidly reduced ocular infiltrates	completely prevented the development of experimental autoimmune myasthenia gravis (EAMG)
